Source: article PMC7367283, “A PIP2 substitute mediates voltage sensor-pore coupling in KCNQ activation” (Communications Biology, 2020)

Molecular target: CaV1.2 (Homo sapiens, UniProt Q13936)
Experiment: Two-electrode voltage clamp of CaV1.2 in Xenopus oocytes
Assay type: cell-based
Conditions: 10 µM CP1
Description: Since CP1 has a similar effect to PIP2 in mediating VSD-pore coupling in KCNQ channels, we tested if CP1 has effects on other ion channels that are also sensitive to PIP2 or are voltage activated and share general structural features of the VSD and the pore with KCNQ. […] On the other hand, NaV1.5 and KV4.2 are voltage-gated ion channels.
Fig. 6 Effects of CP1 on other ion channels expressed in Xenopus oocytes. a Currents of Kir1.1, CaV1.2, NaV1.5, hERG, and KV4.2 before and after application of 10 µM CP1, respectively. The voltages for holding, test, and returning pulses were Kir1.1, 0 mV, −100 to +60 mV, 0; CaV1.2, −100 mV, −100 to +60, −100 mV; NaV1.5, −100, −120 to +40 mV, −120 mV; hERG, −80 mV, −90 to +60 mV, −60 mV; KV4.2, −80 mV, −100 mV to +80 mV, −40 mV; HCN4, −30 mV, −30 to −140 mV, −120 mV. b Current–voltage relations of Kir1.1 channel in the absence or presence of 10 µM CP1 (n = 7). c–g G–V relations of indicated channels with and without 10 µM CP1. The ΔV1/2 of G–V relations (mV) are CaV1.2, 3.38 ± 0.71 mV (c); NaV1.5, −2.26 ± 0.95 mV (d); hERG, 6.85 ± 1.81 mV (e); KV 4.2, −2.26 ± 2.88 mV (f); HCN4, 17.13 ± 1.59 mV (g).
Complementary DNA (cDNA) encoding human KCNQ1 (UniProtKB/Swiss‐Prot under accession no. P51787), KCNQ2 (O43526), KCNQ3 (O43525), KCNE1 (P15382), Kir1.1 (P48048), hERG (Q12809), KV4.2 (Q63881), NaV1.5 (Q14524), NaV β1 (Q07699), CaV1.2 (Q13936), CaV β1a (Q02641), CaV α2/δ1 (P54289), and HCN4 (Q9Y3Q4) were subcloned into oocyte expression vectors, respectively. Site-directed mutations of the KCNQ1 channel were all produced by overlap extension polymerase chain reaction (PCR) with high-fidelity Pfu polymerase (Stratagene, CA). The presence of the desired mutation was verified by sequencing the PCR-amplified regions. All the primer sequences used in this study are available in Supplementary Table 1. The complementary RNA (cRNA) of all these channels and mutations was transcribed in vitro with the T3, T7, or SP6 polymerase mMessage mMachine kit (Invitrogen, Thermo Fisher Scientific, MO).
The use of Xenopus laevis to obtain oocytes was approved by the Washington University Animal Studies Committee (protocol #20190030). Oocytes were manually dispersed and digested with collagenase (0.5 mg/ml, Sigma-Aldrich, Saint Louis, MO) to remove the follicle cell layer. Stage V or VI oocytes were selected and injected with cRNAs (9.2 ng) of channel or mutations. Especially, to characterize IKs, a mix of cRNAs at a molar ratio 4:1 (KCNQ1:KCNE1) was injected. For KCNQ2/KCNQ3, the molar ratio was 1:1 (KCNQ2:KCNQ3). For sodium channels, a 3:1 molar ratio (β1:NaV1.5) and for calcium channels a weight ratio 1:1:1 (β1:α2/δ1:CaV1.2) was injected, respectively. Injected oocytes were incubated in ND96 solution containing (in mM) 96 NaCl, 2 KCl, 1.8 CaCl2, 1 MgCl2, and 5 HEPES, pH 7.6, supplemented with 2.5 mM Na pyruvate and 1% penicillin–streptomycin, at 18 °C for 3–7 days before recording.
The whole-oocyte ionic currents were recorded with a GeneClamp 500B amplifier (Axon Instruments, CA) or iTEV90 amplifier (HEKA, Germany) and then sampled at 1 kHz and low-pass-filtered at 2 kHz. The Patchmaster software (HEKA, Germany) was used to acquire data. The Kir1.1 current was recorded with a high K^+ bath solution containing (in mM) 96 KCl, 4 NaCl, 1 CaCl2, 2 MgCl2, and 10 HEPES, pH 7.3–7.4. The HCN4 current was recorded in ND66 solution containing (in mM) 66 NaCl, 32 KCl, 1.8 CaCl2, 1 MgCl2, and 5 HEPES, pH 7.6. All the other potassium channels were recorded in ND96 solution. The currents of CaV1.2 channel were recorded in 40 mM Ba^2+ bath solution containing (in mM) 40 Ba(OH)2, 50 TEA-OH, 2 KOH, and 5 HEPES, adjusted to pH 7.4 with methanesulfonic acid. CP1 (DISODIUM 5-BROMO-2-[9-CHLORO-3-(SULFONATOOXY) NAPHTHO [1,2-B] THIEN-2-YL]-1H-INDOL-3-YL SULFATE, Sigma-Aldrich, MO) and Chromanol 293B (Sigma-Aldrich, MO) were dissolved in bath solutions. All the chemicals were purchased from Sigma-Aldrich. […]

Sequence of CaV1.2 (Q13936 whole entry): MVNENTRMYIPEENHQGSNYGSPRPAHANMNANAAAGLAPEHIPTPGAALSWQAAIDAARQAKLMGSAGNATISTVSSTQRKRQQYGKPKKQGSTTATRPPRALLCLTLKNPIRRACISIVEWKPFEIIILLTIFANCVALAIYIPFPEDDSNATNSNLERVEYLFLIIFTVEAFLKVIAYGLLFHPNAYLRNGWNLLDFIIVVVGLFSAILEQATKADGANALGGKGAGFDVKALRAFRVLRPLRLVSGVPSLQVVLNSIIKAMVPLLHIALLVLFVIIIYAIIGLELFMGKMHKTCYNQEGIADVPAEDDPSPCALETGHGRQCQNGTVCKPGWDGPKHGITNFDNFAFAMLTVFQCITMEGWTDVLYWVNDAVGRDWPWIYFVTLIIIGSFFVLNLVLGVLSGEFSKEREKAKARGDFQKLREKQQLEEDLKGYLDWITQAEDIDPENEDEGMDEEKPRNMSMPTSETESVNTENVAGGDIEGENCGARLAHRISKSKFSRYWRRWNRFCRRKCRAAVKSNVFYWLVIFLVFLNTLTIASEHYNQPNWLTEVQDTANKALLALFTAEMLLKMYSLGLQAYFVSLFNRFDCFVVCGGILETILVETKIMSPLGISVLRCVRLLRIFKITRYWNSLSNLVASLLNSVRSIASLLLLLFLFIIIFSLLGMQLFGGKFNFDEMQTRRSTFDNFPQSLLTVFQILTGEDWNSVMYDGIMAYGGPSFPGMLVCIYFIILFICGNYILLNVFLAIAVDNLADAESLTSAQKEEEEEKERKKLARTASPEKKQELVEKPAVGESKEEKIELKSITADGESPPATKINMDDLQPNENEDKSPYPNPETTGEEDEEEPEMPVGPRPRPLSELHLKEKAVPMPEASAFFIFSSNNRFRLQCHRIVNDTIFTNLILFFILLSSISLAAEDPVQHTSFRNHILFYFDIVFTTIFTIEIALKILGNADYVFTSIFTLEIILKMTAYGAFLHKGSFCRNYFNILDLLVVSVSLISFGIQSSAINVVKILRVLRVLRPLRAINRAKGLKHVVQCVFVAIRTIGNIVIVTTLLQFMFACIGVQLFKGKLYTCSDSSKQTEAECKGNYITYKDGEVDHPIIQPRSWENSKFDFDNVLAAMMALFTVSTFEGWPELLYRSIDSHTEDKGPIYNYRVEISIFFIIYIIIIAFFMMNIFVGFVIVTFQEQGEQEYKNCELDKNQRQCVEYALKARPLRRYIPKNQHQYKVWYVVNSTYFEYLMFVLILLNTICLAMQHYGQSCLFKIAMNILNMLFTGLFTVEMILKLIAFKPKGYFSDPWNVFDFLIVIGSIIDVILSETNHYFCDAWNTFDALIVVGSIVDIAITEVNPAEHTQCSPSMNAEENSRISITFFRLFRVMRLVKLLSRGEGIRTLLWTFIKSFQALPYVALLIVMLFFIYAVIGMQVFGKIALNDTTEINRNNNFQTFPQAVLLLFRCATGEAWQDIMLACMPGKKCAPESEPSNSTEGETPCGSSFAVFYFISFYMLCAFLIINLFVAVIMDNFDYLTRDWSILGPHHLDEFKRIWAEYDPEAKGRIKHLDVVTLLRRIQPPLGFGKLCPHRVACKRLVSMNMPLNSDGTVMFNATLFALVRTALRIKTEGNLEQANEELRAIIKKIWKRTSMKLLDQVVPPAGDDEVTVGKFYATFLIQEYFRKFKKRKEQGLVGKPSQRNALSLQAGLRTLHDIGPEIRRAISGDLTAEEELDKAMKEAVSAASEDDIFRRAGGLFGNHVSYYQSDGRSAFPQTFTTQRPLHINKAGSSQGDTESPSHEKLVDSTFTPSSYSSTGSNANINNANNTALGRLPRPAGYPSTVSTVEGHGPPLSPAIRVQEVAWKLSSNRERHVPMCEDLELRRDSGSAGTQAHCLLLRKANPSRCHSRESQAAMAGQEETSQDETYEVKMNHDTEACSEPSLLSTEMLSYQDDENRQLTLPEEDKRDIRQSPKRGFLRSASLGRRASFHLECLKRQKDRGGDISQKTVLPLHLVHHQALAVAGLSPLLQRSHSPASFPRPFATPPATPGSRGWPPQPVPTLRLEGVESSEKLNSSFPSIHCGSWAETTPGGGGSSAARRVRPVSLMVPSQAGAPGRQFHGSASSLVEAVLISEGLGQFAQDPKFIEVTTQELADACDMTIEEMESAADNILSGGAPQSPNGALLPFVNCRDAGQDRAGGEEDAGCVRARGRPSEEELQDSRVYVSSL
Sequence of CaV1.2 (Q02641 1-523 isoform Q02641-2 partner): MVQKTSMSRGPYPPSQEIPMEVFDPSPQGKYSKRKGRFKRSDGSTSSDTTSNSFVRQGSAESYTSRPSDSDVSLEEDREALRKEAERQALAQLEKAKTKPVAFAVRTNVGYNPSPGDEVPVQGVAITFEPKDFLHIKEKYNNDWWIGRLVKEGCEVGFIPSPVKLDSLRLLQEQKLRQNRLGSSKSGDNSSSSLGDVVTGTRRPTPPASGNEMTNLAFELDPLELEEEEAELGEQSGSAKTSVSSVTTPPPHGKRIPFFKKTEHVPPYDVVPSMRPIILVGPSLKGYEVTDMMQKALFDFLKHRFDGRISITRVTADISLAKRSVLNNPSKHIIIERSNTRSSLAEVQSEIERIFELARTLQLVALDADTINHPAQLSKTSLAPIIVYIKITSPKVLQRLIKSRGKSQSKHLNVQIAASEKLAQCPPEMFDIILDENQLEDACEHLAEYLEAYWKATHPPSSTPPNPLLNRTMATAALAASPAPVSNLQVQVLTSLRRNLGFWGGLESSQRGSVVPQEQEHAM
Sequence of CaV1.2 (P54289 25-956 partner limits assumed): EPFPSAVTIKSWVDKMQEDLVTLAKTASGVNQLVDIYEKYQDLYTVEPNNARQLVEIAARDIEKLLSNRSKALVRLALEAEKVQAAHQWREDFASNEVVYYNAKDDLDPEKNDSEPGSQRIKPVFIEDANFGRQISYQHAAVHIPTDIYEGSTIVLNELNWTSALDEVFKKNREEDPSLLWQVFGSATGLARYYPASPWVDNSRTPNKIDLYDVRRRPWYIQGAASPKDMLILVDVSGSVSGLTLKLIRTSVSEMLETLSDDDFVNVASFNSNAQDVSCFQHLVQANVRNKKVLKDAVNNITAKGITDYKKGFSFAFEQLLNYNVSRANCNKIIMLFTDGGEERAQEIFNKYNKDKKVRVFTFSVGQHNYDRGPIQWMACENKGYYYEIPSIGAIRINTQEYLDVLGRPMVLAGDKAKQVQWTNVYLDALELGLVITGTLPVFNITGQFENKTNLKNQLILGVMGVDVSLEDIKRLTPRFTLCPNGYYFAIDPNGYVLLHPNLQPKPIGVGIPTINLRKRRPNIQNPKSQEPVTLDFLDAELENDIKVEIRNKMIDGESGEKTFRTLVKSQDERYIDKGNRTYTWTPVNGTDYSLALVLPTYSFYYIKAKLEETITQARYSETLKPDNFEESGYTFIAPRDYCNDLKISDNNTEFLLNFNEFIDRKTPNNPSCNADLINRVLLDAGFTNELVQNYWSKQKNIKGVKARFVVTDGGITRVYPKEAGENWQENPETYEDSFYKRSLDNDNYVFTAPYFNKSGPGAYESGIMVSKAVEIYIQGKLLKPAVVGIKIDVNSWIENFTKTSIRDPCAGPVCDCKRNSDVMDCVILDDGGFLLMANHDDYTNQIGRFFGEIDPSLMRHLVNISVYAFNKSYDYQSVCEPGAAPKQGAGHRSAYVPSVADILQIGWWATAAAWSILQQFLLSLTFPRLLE
Sequence of CaV1.2 (P54289 957-1103 partner limits assumed): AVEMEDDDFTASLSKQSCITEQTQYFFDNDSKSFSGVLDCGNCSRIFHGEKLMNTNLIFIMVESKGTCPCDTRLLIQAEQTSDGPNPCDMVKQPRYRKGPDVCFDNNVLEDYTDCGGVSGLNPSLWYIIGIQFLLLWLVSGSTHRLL

## O=S(=O)([O-])Oc1c(-c2sc3c(ccc4cccc(Cl)c43)c2OS(=O)(=O)[O-])[nH]c2ccc(Br)cc12.[Na+].[Na+] [CP1, DISODIUM 5-BROMO-2-[9-CHLORO-3-(SULFONATOOXY) NAPHTHO [1,2-B] THIEN-2-YL]-1H-INDOL-3-YL SULFATE]
  ΔV1/2 of G–V relations: 3.38 ± 0.71 mV
Voltage 0 mV
  G/Gmax Mean (Fig. 6c): 0.1903
Voltage 10 mV
  G/Gmax Mean (Fig. 6c): 0.4214
Voltage 20 mV
  G/Gmax Mean (Fig. 6c): 0.7222
Voltage 30 mV
  G/Gmax Mean (Fig. 6c): 0.9242
Voltage 40 mV
  G/Gmax Mean (Fig. 6c): 1.0000
Voltage -10 mV
  G/Gmax Mean (Fig. 6c): 0.0690
Voltage -20 mV
  G/Gmax Mean (Fig. 6c): 0.0228
Voltage -30 mV
  G/Gmax Mean (Fig. 6c): 0.0102
Voltage -40 mV
  G/Gmax Mean (Fig. 6c): 0.0076
Voltage -50 mV
  G/Gmax Mean (Fig. 6c): 0.0080
Voltage -60 mV
  G/Gmax Mean (Fig. 6c): 0.0090
Voltage -70 mV
  G/Gmax Mean (Fig. 6c): 0.0102
Voltage -80 mV
  G/Gmax Mean (Fig. 6c): 0.0108
Voltage -90 mV
  G/Gmax Mean (Fig. 6c): 0.0176
Voltage -100 mV
  G/Gmax Mean (Fig. 6c): 0.0169
